Activity calls are given as the source filed them. Cut-off read from the data, not from the text of the source, for most assays here: actives have a measured EC50 and inactives only a lower limit.
Tests used:
[1] = microbe, parasite or virus in culture; type: functional; settings: Mycobacterium tuberculosis
[2] = biological target: T1, Corticotropin-releasing factor receptor 2/Corticotropin-releasing factor-binding protein (Homo sapiens, UniProt P24387+Q13324); assay: activators of CRF receptor 2 with binding protein – uHTS hits, confirmation (AID 602473); type: functional; settings: read-out: EC50_Mean
T1 sequence (Q13324 whole entry): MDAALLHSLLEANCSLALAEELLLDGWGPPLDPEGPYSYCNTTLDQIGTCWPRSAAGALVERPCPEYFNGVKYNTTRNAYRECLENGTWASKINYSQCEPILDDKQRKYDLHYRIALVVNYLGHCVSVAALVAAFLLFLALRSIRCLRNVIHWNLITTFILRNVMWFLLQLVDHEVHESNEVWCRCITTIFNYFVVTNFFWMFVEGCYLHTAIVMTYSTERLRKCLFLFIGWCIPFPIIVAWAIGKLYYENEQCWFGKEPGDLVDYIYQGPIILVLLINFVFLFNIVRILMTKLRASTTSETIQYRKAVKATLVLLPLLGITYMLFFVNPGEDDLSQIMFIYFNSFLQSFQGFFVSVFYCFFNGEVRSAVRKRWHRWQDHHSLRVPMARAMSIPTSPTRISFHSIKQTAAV
T1 sequence (P24387 whole entry): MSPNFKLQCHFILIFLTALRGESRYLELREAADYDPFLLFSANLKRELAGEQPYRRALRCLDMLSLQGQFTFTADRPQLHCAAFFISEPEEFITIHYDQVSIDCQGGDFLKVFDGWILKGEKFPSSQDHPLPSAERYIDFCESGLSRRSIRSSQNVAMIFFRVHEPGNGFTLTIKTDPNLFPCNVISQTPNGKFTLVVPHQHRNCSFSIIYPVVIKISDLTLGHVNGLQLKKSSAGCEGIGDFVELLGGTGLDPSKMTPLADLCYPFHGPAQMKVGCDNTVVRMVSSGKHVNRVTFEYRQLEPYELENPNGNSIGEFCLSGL

Nonstructural protein 1 = Nonstructural protein 1 (Influenza A virus, UniProt Q194T2); type: functional, Influenza A virus (A/California/07/2009(H1N1))
Streptokinase A = biological target: T2, Streptokinase A (Streptococcus pyogenes serotype M1, UniProt P10520); assay: viability-normalized secreted streptokinase activity reduction – plasminogen activation absorbance, OD405, dose response (AID 1914); type: functional, Streptococcus pyogenes M1 GAS;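 note: secreted streptokinase activity via plasminogen activation per viability signal from cell pellet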
T2 sequence (P10520 whole entry): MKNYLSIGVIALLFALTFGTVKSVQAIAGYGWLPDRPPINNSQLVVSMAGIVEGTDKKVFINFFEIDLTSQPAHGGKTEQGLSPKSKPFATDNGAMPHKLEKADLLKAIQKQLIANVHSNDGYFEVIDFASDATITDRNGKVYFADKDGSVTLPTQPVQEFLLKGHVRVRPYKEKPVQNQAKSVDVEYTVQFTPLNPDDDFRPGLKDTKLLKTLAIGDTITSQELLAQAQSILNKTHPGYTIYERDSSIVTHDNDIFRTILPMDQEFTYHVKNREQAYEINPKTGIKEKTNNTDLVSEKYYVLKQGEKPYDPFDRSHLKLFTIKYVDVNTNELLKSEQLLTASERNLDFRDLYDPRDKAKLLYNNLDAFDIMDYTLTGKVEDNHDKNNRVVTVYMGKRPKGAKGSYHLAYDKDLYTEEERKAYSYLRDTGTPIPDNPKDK

Streptococcus = assay: GAS UMAA2166 growth inhibition – luminescence, BacTiterGlo, counter-screen for streptokinase expression inhibitor project, dose response (AID 1915); type: functional, organism-based;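 note: potency for reduction of bacterial viability or growth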
[3] = test system: Streptococcus sp. 'group A'; assay: Streptococcus pyogenes SK(-)GAS viability under kanamycin – luminescence, BacTiterGlo, confirmation, counter-screen for streptokinase expression inhibitor project, dose response (AID 1900); type: functional, organism-based
H9c2 = assay: cells; type: functional, cell-based; settings: Rattus norvegicus, H9c2, Myocardium;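 note: confirmatory concentration-response retest of ultra-high-throughput screening hits for modulation of myocardial damage; cell death induced by hydrogen peroxide oxidative stress; compound pretreatment for 60 min then peroxide exposure for 2 h; potency is for protecting the cells against peroxide damage rather than for killing them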
[4] = NIH-3T3 fibroblast cytotoxicity, dose response, cytotoxicity control, cell-based, fluorescence, Alamar Blue, secondary assay (AID 2327); type: functional;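 note: NIH-3T3 mouse fibroblasts cultured with fluconazole at 8 µg/mL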
[5] = Luminescence Cell-Based Dose Retest to Confirm Inhibitors of Cancer Stem Cells. [Related pubchem assays (depositor defined):AID2717, AID2721]; type: functional; settings: Homo sapiens
[6] = Trypanosoma cruzi growth suppression in host cells – NIH3T3 host cells, beta-gal luminescence, confirmation (AID 2044); type: functional, cell-based;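 note: intracellular parasites grown in NIH/3T3 mouse fibroblasts as host cells; luminescent beta-galactosidase reporter signal from transgenic T. cruzi replicating inside host cells; inhibitors lower the luminescence signal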
[7] = NIH3T3 cell viability loss – ATP luminescence, mouse fibroblasts, counter-screen, dose response (AID 2010); type: functional, cell-based;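 note: cells exposed to compound for about 90 hours before reading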
[8] = fluconazole-exposed Candida albicans growth modulators – fluorescence, retest, confirmation (AID 2467); type: functional, cell-based
Fatty acid synthase = Fatty acid synthase (Homo sapiens, UniProt P49327); assay: inhibition of human FAS-TE enzyme activity – biochemical, kinetic fluorescence intensity, dose response (AID 624326); type: functional;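 note: rate of fluorescence rise from hydrolysis of a fluorogenic O-methyl fluorescein ester substrate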
[9] = luciferase reporter signal suppression in cells – H4 neuroglioma cells, luminescence, dose response (AID 1990); type: functional, cell-based
[10] = Luminescence Cell-Based Dose Response HTS to Identify Inhibitors of 5'UTR Stem-Loop Driven Prion Protein mRNA Translation in H4 Neuroglioblastoma Cells. [Related pubchem assays: 1827 (Project Summary), 1813 (Primary HTS)]; type: functional
[11] = alpha-synuclein stem-loop luciferase translation blockers – H4 neuroglioma cells, luminescence, confirmation (AID 1988); type: functional, cell-based
[12] = blockade of melanocortin 4 receptor signaling – cell-based, plate reader, cherry pick, counter-screen for LGR2 antagonist project, dose response (AID 743444); type: functional;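 note: transfected HEK 293 cells stimulated with alpha-MSH peptide; potency of inhibitors of the alpha-MSH evoked signal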
[13] = toxicity toward HepG2 liver cells – cell-based, plate reader, cherry-pick, antagonist series, cytotoxicity control, dose response (AID 743416); type: functional
Protein RecA = biological target: T3, Protein RecA (Mycobacterium tuberculosis, UniProt P9WHJ3); assay: Fluorescence Cell-Free Homogeneous Dose Retest to Identify Inhibitors of RecA-Intein Splicing Activity. [Related pubchem assays (depositor defined):AID2097, AID2223, AID489010, AID492950]; type: functional
T3 sequence (P9WHJ3 whole entry): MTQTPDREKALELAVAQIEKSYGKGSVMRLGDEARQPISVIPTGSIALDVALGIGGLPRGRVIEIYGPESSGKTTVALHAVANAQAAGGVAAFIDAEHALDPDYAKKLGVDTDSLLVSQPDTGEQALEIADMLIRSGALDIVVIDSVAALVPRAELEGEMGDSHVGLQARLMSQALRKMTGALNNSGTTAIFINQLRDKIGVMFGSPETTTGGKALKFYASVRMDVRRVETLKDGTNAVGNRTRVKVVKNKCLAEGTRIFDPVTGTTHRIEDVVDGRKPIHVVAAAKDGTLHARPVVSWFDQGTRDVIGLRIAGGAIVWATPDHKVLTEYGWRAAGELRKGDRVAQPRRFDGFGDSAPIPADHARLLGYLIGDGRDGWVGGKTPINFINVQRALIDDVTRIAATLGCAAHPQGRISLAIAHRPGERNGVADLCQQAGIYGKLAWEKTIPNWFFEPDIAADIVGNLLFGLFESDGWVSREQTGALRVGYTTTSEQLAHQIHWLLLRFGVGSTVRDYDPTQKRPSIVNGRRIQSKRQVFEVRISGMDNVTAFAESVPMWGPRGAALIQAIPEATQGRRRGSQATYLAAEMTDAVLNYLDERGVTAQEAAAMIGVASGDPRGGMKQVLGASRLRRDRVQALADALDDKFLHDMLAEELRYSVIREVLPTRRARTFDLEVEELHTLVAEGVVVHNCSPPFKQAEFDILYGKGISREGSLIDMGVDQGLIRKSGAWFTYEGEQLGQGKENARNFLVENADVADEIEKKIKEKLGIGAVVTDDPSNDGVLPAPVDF

[14] = biological target: T4, Replicative DNA helicase DnaB (Mycobacterium tuberculosis, UniProt P9WMR3); assay: DnaB intein splicing inhibitors, dose response, biochemical, cell-free fluorescence (AID 449749); type: functional
T4 sequence (P9WMR3 whole entry): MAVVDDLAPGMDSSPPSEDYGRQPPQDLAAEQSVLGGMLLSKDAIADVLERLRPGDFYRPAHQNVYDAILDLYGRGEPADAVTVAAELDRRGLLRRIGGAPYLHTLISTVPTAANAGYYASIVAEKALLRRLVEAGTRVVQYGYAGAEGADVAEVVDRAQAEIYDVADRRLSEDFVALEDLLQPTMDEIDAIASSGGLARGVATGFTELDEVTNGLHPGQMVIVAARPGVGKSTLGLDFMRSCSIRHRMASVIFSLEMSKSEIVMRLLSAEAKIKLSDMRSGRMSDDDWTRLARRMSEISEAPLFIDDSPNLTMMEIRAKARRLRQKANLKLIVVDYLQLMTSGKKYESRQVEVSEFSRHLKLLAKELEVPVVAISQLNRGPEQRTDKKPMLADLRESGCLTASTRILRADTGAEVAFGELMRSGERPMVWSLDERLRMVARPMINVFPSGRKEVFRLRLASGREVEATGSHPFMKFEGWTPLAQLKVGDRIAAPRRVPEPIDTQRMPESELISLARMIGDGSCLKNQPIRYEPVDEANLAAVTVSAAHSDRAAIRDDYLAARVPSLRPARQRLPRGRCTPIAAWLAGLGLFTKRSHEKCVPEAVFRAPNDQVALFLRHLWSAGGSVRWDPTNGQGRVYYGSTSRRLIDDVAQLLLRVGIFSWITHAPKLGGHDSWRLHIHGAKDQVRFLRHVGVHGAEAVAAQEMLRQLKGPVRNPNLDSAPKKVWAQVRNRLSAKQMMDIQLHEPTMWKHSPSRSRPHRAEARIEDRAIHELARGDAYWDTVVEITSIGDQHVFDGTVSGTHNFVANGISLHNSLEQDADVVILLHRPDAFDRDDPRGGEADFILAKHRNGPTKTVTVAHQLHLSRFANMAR

Chain of Nonstructural protein 1 (Q194T2 whole entry): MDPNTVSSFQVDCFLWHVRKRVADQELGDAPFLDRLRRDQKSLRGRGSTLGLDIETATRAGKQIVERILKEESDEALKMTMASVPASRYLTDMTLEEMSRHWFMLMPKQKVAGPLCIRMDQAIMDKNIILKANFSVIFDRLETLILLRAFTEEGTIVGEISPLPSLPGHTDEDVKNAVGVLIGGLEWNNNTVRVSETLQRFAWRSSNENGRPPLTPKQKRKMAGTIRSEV
Chain of Fatty acid synthase (P49327 whole entry): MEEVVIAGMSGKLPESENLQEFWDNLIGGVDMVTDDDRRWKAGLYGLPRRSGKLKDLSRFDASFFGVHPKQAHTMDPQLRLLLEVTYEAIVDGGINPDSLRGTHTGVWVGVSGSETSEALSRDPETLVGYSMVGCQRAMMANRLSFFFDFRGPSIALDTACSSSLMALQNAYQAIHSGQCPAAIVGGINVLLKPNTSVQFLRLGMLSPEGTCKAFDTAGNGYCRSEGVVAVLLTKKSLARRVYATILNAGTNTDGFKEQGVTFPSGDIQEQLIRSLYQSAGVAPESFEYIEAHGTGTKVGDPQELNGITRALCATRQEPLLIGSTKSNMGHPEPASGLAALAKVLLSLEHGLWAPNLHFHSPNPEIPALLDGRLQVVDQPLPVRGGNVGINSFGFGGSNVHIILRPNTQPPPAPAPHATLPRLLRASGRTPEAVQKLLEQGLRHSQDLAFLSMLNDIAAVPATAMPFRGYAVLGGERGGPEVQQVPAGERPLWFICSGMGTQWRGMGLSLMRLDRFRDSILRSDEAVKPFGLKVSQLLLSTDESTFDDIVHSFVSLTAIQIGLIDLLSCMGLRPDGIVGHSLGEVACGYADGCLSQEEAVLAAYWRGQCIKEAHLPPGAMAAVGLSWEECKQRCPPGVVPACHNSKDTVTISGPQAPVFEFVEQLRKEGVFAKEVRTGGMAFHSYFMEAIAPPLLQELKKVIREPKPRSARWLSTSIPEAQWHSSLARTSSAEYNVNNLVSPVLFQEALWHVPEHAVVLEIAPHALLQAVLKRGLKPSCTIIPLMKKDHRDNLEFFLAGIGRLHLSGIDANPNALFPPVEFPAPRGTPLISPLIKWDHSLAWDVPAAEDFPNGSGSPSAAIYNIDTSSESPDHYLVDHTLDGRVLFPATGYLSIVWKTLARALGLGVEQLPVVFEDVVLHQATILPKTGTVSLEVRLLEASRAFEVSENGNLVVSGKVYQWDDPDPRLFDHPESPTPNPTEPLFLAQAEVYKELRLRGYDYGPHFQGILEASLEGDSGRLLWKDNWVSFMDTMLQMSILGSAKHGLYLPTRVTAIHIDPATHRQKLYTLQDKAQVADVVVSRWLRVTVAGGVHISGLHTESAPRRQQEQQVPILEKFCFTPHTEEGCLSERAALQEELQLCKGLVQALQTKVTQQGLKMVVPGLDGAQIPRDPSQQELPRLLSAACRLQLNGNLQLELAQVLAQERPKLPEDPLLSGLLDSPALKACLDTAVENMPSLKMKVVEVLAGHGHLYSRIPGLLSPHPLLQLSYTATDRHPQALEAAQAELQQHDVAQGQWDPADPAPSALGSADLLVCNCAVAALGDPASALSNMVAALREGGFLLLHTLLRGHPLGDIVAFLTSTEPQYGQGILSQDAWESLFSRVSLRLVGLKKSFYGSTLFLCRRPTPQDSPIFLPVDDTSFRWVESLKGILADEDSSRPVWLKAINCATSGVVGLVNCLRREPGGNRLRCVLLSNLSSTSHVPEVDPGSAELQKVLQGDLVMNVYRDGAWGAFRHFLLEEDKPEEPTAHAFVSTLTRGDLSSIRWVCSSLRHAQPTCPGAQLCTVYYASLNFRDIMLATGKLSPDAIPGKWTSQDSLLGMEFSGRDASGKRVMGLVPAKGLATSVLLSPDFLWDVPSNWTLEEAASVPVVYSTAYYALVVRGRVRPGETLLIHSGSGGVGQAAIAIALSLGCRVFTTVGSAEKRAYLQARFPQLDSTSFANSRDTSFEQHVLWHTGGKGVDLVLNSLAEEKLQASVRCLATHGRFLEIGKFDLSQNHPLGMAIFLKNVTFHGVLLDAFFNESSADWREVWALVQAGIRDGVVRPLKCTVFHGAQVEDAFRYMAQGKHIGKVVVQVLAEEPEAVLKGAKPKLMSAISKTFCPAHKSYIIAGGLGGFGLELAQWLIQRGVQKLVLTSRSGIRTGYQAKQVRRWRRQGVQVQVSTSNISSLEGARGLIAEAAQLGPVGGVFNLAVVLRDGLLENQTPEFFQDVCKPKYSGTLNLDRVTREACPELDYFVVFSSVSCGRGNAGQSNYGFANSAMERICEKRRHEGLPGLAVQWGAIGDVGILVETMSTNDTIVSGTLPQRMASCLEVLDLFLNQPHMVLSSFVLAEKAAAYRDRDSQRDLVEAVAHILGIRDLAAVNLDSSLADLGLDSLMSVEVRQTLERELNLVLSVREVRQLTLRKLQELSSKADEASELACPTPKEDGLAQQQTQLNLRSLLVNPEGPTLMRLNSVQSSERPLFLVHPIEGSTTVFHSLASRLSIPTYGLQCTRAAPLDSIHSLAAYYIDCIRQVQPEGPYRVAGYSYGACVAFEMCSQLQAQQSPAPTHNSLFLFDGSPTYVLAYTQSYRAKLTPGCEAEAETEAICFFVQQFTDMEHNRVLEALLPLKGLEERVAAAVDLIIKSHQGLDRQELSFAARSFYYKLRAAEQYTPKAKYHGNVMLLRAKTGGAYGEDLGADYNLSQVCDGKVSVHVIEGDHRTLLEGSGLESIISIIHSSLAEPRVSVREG

CCc1noc(C)c1C(=O)Nc1nc(-c2ccc(F)cc2)c(C)s1
CC50 [1]: > 40 µM (active)

Cc1cc(-c2cccs2)c2c(N)c(C(=O)c3ccc4c(c3)OCO4)sc2n1
EC50 [2]: 7.29 µM (active)

CCCCCn1c(N)c(-c2nc3ccccc3s2)c2c([N+](=O)[O-])nn(CC)c(=O)c21
IC50 (Nonstructural protein 1): > 50 µM (active) | EC50 (Streptokinase A): > 150 µM (not active) | EC50 (Streptococcus): > 150 µM (not active) | EC50 [3]: 6.03 µM (active)

Cc1ccc(C(C(=O)NCc2ccccc2)N(Cc2ccco2)C(=O)c2snc(C(N)=O)c2N)o1 (configuration not stated)
IC50 (H9c2): > 79 µM (inactive)

Cc1ccc(NS(=O)(=O)c2ccc(C(=O)N3CCCC(C(F)(F)F)C3)cc2)cc1 (configuration not stated)
EC50 [2]: 5.17 µM (active)

CCC(c1nnnn1Cc1ccco1)N(Cc1cc2cc(C)cc(C)c2nc1O)CC1CCCO1 (configuration not stated)
IC50 (H9c2): > 79 µM (inactive)

CC(C)OC(=O)C(=O)NNc1ccccc1
EC50 [4]: 1.21 µM (active) | AC50 [5]: 0.731 µM (active) | EC50 [6]: 0.792 µM (active) | EC50 [7]: < 6 µM (inconclusive) | EC50 [8]: > 38 µM (not active)

Cc1cccc(OCCn2nc(C(=O)O)c3ccccc3c2=O)c1
IC50 (H9c2): > 79 µM (inactive)

CCCOP(=O)(OCCC)c1c([N+](=O)[O-])cc(C(F)(F)F)cc1[N+](=O)[O-]
CC50 [1]: 24.2 µM (active)

CC(OC(=O)CCc1nc(O)c2ccccc2n1)C(=O)NC1CCCC1 (configuration not stated)
IC50 (H9c2): 30.3 µM (inactive)

COc1ccc(CNC(=O)c2ccc(Cn3nc(C)c([N+](=O)[O-])c3C)o2)cc1
IC50 (H9c2): > 79 µM (inactive)

O=C(CCS(=O)(=O)c1ccccc1)Nc1nnc(C(F)(F)F)s1
EC50 [4]: > 160 µM (inactive) | EC50 [8]: 0.302 µM (active)

Cc1cc(N2C(=O)C(O)=C(C(=O)c3cc4ccccc4o3)C2c2cccs2)no1 (configuration not stated)
EC50 [4]: 70.9 µM (active) | EC50 [8]: 1.17 µM (active)

COc1ccc(CNC(=O)/C=C/c2cc([N+](=O)[O-])ccc2OC(F)F)cc1OC
IC50 (Fatty acid synthase): 3.28 µM (active)

CCOc1ccc(N2CCc3c(C)nc(SC)nc32)cc1
CC50 [1]: 34.9 µM (active)

Oc1ccc(NCc2nnc(O)c3ccccc23)cc1
IC50 (H9c2): > 79 µM (inactive)

O=C(CCc1nc(O)c2ccccc2n1)NNC(=O)c1ccccc1Cl
IC50 (H9c2): 16.2 µM (active)

CCOC(=O)c1ccc(NC(=O)Nc2ccn(C)n2)cc1
EC50 [4]: > 150 µM (inconclusive) | EC50 [8]: 4.84 µM (active)

Cc1cc(C)nc(NC(N)=Nc2ccc(CC(=O)OC(C)C)cc2)n1
EC50 [2]: 2.56 µM (active)

CCCCN(C)C(=O)Cc1c(OC)ccc2cc(Br)ccc12
CC50 [1]: > 40 µM (active)

O=C(CC(NCCN1CCOCC1)C(=O)O)Nc1cccc(Cl)c1 (configuration not stated)
EC50 [4]: 86.4 µM (active) | EC50 [8]: > 38 µM (not active)

Cc1c(C(=O)Nc2nc3ccccc3[nH]2)oc2c(Cl)cccc12
EC50 [6]: 1.68 µM (active) | EC50 [7]: > 60 µM (not active) | CC50 [1]: 32.4 µM (active) | EC50 (Streptococcus): 8.37 µM (active) | EC50 [3]: 1.72 µM (active)

CCCCN(Cc1nc(O)c2ccccc2n1)C(=O)CN1C(=O)NC2(CCCCC2)C1=O
IC50 (H9c2): 16.4 µM (active)

COC(=O)c1scc(C)c1NC(=O)c1ccccc1F
EC50 [2]: > 53 µM (inactive)

Nc1nonc1-n1nnc(C(=O)N/N=C/c2ccccn2)c1CNc1ccccc1
IC50 (H9c2): 18.1 µM (active)

O=C(Nc1cccc(/N=C/c2cc(Cl)cc(Br)c2O)c1)c1ccco1
IC50 (H9c2): 12.3 µM (active)

COc1ccccc1C(=O)NCC(=O)N/N=C/c1cc(Br)ccc1OC(=O)/C=C\c1ccco1
EC50 [9]: 11.9 µM (active) | IC50 (H9c2): > 79 µM (inactive) | EC50 [10]: 12 µM (active) | EC50 [11]: 11 µM (active)

CC1(C)CS/C(=N\Cc2ccccc2)N1C(=O)c1cccc([N+](=O)[O-])c1
EC50 [2]: 7.16 µM (active)

C[C@H](CO)N1C[C@H](C)[C@H](CN(C)C(=O)Cc2ccccc2)OCCCC[C@H](C)Oc2ccc(NC(=O)Nc3ccc(C(F)(F)F)cc3)cc2C1=O
AC50 [12]: 4.79 µM (active) | AC50 [13]: 35 µM (active)

O=C(O)c1cccc(N/N=C(\N=Nc2ccccc2)c2ccccc2)c1
AC50 [5]: 2.45 µM (active) | IC50 (Nonstructural protein 1): 34.5 µM (active) | EC50 (Protein RecA): 51.1 µM (active) | AC50 [14]: 7.75 µM (active)

— ChEMBL document CHEMBL1201862, “PubChem BioAssay data set” (2004)
